Test results reported in patent publication US10144758B2, “Deuterated bile acids” (Metselex, Inc., priority 2013, dated 2018).

System: primary rat hepatocytes
Assay: DCA-induced apoptosis, nuclear fragmentation by Hoechst staining
Assay type: cell-based
Details: for prevention of nuclear fragmentation: 50 μM DCA, 100 μM compound pretreatment, FIG. 7C
Procedure: Primary rat hepatocytes were isolated from male rats (100-150 grams) by collagenase perfusion (as described by Solá S, et al., 2003, Journal of Biological Chemistry 278: 48831-48838)). Briefly, rats were anesthetized with phenobarbital sodium (100 mg/kg body weight) injected into the peritoneal cavity. After administration of heparin (200 units/kg body weight) in the tail vein, the animal's abdomen was opened and the portal vein exposed and cannulated. The liver was then perfused at 37° C. in situ with a calcium-free Hanks' Balanced Salt Solution (HBSS) for about 10 minutes, and then with 0.05% collagenase type IV in calcium-present HBSS for another 10 minutes. Hepatocyte suspensions were obtained by passing collagenase-digested livers through 125 μm gauze and washing cells in Complete William's E medium (William's E medium, Sigma-Aldrich Corp., St Louis, Mo., USA) supplemented with 26 mM sodium bicarbonate, 23 mM HEPES, 0.01 units/mL insulin, 2 mM L-glutamine, 10 nM dexamethasone, 100 units/mL penicillin, and 10% heat-inactivated fetal bovine serum (Invitrogen Corp., Carlsbad, Calif., USA). Viable primary rat hepatocytes were enriched by low-speed centrifugation at 200 g for 3 minutes. Cell viability was determined by trypan blue exclusion and was typically 80-85%. After isolation, hepatocytes were resuspended in Complete William's E medium and plated on PrimariaTM tissue culture dishes (BD Biosciences, San Jose, Calif., USA) at 5×10^4 cells/cm^2. Cells were maintained at 37° C. in a humidified atmosphere of 5% CO2 for 6 hours to allow attachment. […] Fluorescence was visualized using an Axioskop fluorescence microscope (Carl Zeiss GmbH). Blue-fluorescent nuclei were scored blindly and categorized according to the condensation and staining characteristics of chromatin. […] Five random microscopic fields per sample containing approximately 150 nuclei were counted, and mean values expressed as the percentage of apoptotic nuclei. […] Results are expressed as means±SEM of at least three experiments. *p<0.01 from control; § p<0.05 and †p<0.01 from respective DCA.

Compound	prevention of nuclear fragmentation [%]	more effective than UDCA at reducing the percentage of apoptotic cells (DCA, Compound 5 versus UDCA) [%]
7,8-[^2H]-3α,7α-dihydroxy-5β-cholan-24-oic acid/7-[^2H]-3α,7α-dihydroxy-5β-cholan-24-oic acid [Compound 5]	~65	~15
C[C@H](CCC(=O)O)[C@H]1CC[C@H]2[C@@H]3[C@@H](O)C[C@@H]4C[C@H](O)CC[C@]4(C)[C@H]3CC[C@]12C [UDCA, Ursodeoxycholic acid, reference compound]	~50	–
